The source of these data is US10080739B2, “Aryl imidazoles and their use as anti-cancer agents” (Aptose Biosciences Inc., priority 2003, dated 2018).

Structures are written as SMILES. Read-outs that look alike come from different tables or passages of the source.

Assay [1] has as its system human non-small cell lung cancer cells (H460). Briefly: XTT cell proliferation assay, H460 cells, 48 h. It counts as cell-based. The note with it: read-out: % Survival. The protocol: (§1) Selected compounds of Formula I were tested for anti-cancer activity in vitro using a human colon carcinoma cells (HT-29) and human non-small cell lung cancer cells (H460). The cells were maintained in α-MEM medium (Wisent, St-Bruno, Qc) supplemented with 10% FBS, and grown at 37° C. in an atmosphere of 5% CO2. Cells were transferred onto 150 mm tissue culture plates and grown until sub-confluency (70-80%) prior to their use.
(§2) The anti-cancer activity in vitro was evaluated by a cell proliferation assay based on the ability of live cells to reduce the tetrazolium salt XTT to orange coloured compounds of formazan (XTT cell proliferation kit II, Roche Applied Science, Montreal, QC).
(§3) Approximately 4×10^3 colon cancer cells (HT-29) or 2×10^3 non-small cell lung cancer cells (NCI-H460) in 100 μl of complete culture medium were plated onto 96-well microtiter plates and incubated overnight at 37° C. The medium was then removed by inverting the plate and patting on a sterile absorbent cloth. Fifty μl of medium containing the test compound at either 25 or 100 μM, were added to the wells containing cells and incubated at 37° C. in an atmosphere of 5% CO2 for 48 h. Following incubation, 25 μl of an XTT reaction mixture (XTT at a final concentration of 0.3 mg/ml) were added to each well and the plates were incubated for a further 4 h. The absorbance of each sample was then determined at a wavelength of 490 nm/650 nm as reference. Each compound was tested in duplicate and the results are reported as averages.
(In general: Tetrazolium dyes change colour on reduction, which living cells bring about.)

For assay [2], the system named is human colon carcinoma cells (HT-29). The assay is described as follows: XTT cell proliferation assay, HT-29 cells, 48 h. It counts as cell-based. The note with it: read-out: % Survival; for viability at 25 µM: 25 μM compound; for viability at 100 µM: 100 μM compound. Here is the method:
as §1, §2, §3

Setting [3] is: NCI-H460 cells, 25 μM compound, 48 h, XTT.
Where [4] appears, read: NCI-H460 cells, 100 μM compound, 48 h, XTT.

For the compound `Cc1ccc(-c2nc(-c3c(C)[nH]c4ccccc34)[nH]c2-c2ccc(C)cc2)cc1` [Compound 23], the values for the viability at 25 µM in assay [1] (setting [3]) and in assay [2] were 96.3% and 98.2%, respectively. The viability at 100 µM in assay [1] (setting [4]) worked out at 92.1%; in assay [2], 45.7%.
Turning to `Cc1[nH]c2ccccc2c1-c1nc(-c2cccc([N+](=O)[O-])c2)c(-c2cccc([N+](=O)[O-])c2)[nH]1` [Compound 29], the viability at 25 µM in assay [1] (NCI-H460, 48 h) turned out to be 73.8%; in assay [2], 37.1%. In addition, the viability at 100 µM in assay [1] (NCI-H460, 48 h) was found to be 20.2%; in assay [2], 20.9%.
As for `Cc1[nH]c2ccc(Br)cc2c1-c1nc(-c2ccc(Oc3ccccc3)cc2)c(-c2ccc(Oc3ccccc3)cc2)[nH]1` [Compound 39], the viability at 25 µM in assay [1] (setting [3]) was 98.1%; in assay [2], 96.2%. Further, the viability at 100 µM was 17% in assay [1] (setting [4]) and 53% in assay [2].
For `Cc1[nH]c2ccccc2c1-c1nc(-c2ccccc2)c(-c2ccc(Cl)cc2)[nH]1` [Compound 31], the values for the viability at 25 µM in assay [1] (setting [3]) and in assay [2] were 94% and 98.6%, respectively. The viability at 100 µM in assay [1] (setting [4]) was found to be 37.6%; in assay [2], 24.9%.
The matching figures for `COC(=O)c1ccc2c(-c3nc(-c4ccccc4)c(-c4ccccc4)[nH]3)c[nH]c2c1` [Compound 83]: 101%, 100%, 109% and 110%.
In the same order, the values of `Cc1[nH]c2ccccc2c1-c1nc(-c2ccncc2)c(-c2ccc(F)cc2)[nH]1` [Compound 27] are 93.5%, 62.3%, 43.1% and 35%.
The matching figures for `Cc1[nH]c2ccccc2c1-c1nc(-c2ccc(N(C)C)cc2)c(-c2ccc(N(C)C)cc2)[nH]1` [Compound 11]: 98.8%, 108%, 102% and 94.3%.
Consider `COc1ccc(-c2nc(-c3ccccc3)c(-c3ccccc3)[nH]2)c(OC)c1` [Compound 73], for which the viability at 25 µM stood at 89.2% in assay [1] (setting [3]) and 65% in assay [2]. For the same compound, the results for the viability at 100 µM in assay [1] (setting [4]) and in assay [2] were 53.5% and 62.2%, respectively.
`Cc1[nH]c2ccccc2c1-c1nc(-c2ccc(Oc3ccccc3)cc2)c(-c2ccc(Oc3ccccc3)cc2)[nH]1` [Compound 38]: the viability at 25 µM is 98.8% in assay [1] (setting [3]) and 67% in assay [2]. Besides, the viability at 100 µM in assay [1] (setting [4]) was 12.2%; in assay [2], 35.7%.
With `Cc1[nH]c2ccccc2c1-c1nc(-c2ccccc2)c(-c2ccc(F)cc2)[nH]1` [Compound 35], the viability at 25 µM is 83.8% in assay [1] (setting [3]) and 44.1% in assay [2]. Also, the viability at 100 µM in assay [1] (setting [4]) was 1.2%; in assay [2], 2.5%.
For the compound `COc1ccc(-c2nc(-c3c(C)[nH]c4ccccc34)[nH]c2-c2ccc(OC)cc2)cc1` [Compound 9], the viability at 25 µM stood at 98.2% in assay [1] (setting [3]) and 68.3% in assay [2]. Moreover, the results for the viability at 100 µM in assay [1] (setting [4]) and in assay [2] were 8.4% and 15.1%, respectively.
The matching figures for `Brc1ccc2[nH]cc(-c3nc(-c4ccccc4)c(-c4ccccc4)[nH]3)c2c1` [Compound 6]: 10.4%, 11.7%, 1.9% and 3.2%.
In the case of `CCc1c2c(nc3ccc(OC(=O)N4CCC(N5CCCCC5)CC4)cc13)-c1cc3c(c(=O)n1C2)COC(=O)[C@]3(O)CC` [CPT-11, irinotecan, reference compound], the values for the viability at 25 µM in assay [1] (setting [3]) and in assay [2] were 32.2% and 82.3%, respectively. Also, the viability at 100 µM in assay [1] (setting [4]) came out at 6.1%; in assay [2] it was 51.1%.
`Cc1[nH]c2ccccc2c1-c1nc(-c2cccs2)c(-c2cccs2)[nH]1` [Compound 25]: the viability at 25 µM in assay [1] (setting [3]) worked out at 99.5%; in assay [2], 63.9%. Further, the viability at 100 µM in assay [1] (setting [4]) came to 89%; in assay [2], 39.8%.
For `Cc1[nH]c2ccccc2c1-c1nc(-c2ccccc2)c(-c2ccc([N+](=O)[O-])cc2)[nH]1` [Compound 33], the figures for the viability at 25 µM in assay [1] (setting [3]) and in assay [2] were 73.4% and 56.1%, respectively. The viability at 100 µM in assay [1] (setting [4]) amounted to 9.4%; in assay [2], 10%.
As to `c1ccc2c(-c3nc4c5ccccc5c5ccccc5c4[nH]3)c[nH]c2c1` [Compound 46], the viability at 25 µM in assay [1] (NCI-H460, 48 h) was 11.5%; in assay [2], 16.1%. Besides, the viability at 100 µM worked out at 1.9% in assay [1] (NCI-H460, 48 h) and 4.5% in assay [2].
Regarding `Cc1[nH]c2ccccc2c1-c1nc(-c2ccc(Br)cc2)c(-c2ccc(Br)cc2)[nH]1` [Compound 13], the viability at 25 µM came out at 102% in assay [1] (setting [3]) and 106% in assay [2]. Besides, the figures for the viability at 100 µM in assay [1] (setting [4]) and in assay [2] were 96.2% and 82.4%, respectively.
The matching figures for `O=[N+]([O-])c1ccc(-c2[nH]c(-c3c[nH]c4ccc(Br)cc34)nc2-c2ccccc2)cc1` [Compound 34]: 17.4%, 22.8%, 7.6% and 10.8%.
As for `Cc1[nH]c2ccccc2c1-c1nc(-c2ccc(-c3ccccc3)cc2)c(-c2ccc(-c3ccccc3)cc2)[nH]1` [Compound 40], the viability at 25 µM worked out at 97.6% in assay [1] (setting [3]) and 79.1% in assay [2]. In addition, the viability at 100 µM in assay [1] (setting [4]) was determined as 7.7%; in assay [2], 36.7%.
Consider `Fc1ccc(-c2[nH]c(-c3c[nH]c4ccc(Br)cc34)nc2-c2ccccc2)cc1` [Compound 36], for which the viability at 25 µM in assay [1] (setting [3]) worked out at 24.5%; in assay [2] it was 31.6%. Also, the viability at 100 µM in assay [1] (setting [4]) was 2.4%; in assay [2] it was 4.7%.
The matching figures for `Cc1[nH]c2ccccc2c1-c1nc(-c2ccccc2)c(-c2ccc(Br)cc2)[nH]1` [Compound 42]: 66.1%, 59.9%, 1.2% and 1.8%.
Consider `Cc1[nH]c2ccccc2c1-c1nc2c3ccccc3c3ccccc3c2[nH]1` [Compound 44], for which, in assay [1] (NCI-H460, 48 h), the viability at 25 µM stood at 77.3% and the viability at 100 µM is 3.4%. In assay [2], the viability at 25 µM came out at 63.6% and the viability at 100 µM is 6.5%.
With `Clc1ccc(-c2[nH]c(-c3c[nH]c4ccc(Br)cc34)nc2-c2ccccc2)cc1` [Compound 32], the viability at 25 µM amounted to 15% in assay [1] (setting [3]) and 22.7% in assay [2]. Further, the viability at 100 µM amounted to 2.9% in assay [1] (setting [4]) and 7.7% in assay [2].
In the same order, the values of `COc1ccc(-c2nc(-c3c[nH]c4ccc(Br)cc34)[nH]c2-c2ccc(OC)cc2)cc1` [Compound 10] are 26.9%, 25.8%, 2.7% and 7.6%.
With `Brc1ccc(-c2nc(-c3c[nH]c4ccc(Br)cc34)[nH]c2-c2ccc(Br)cc2)cc1` [Compound 14], the viability at 25 µM in assay [1] (setting [3]) was found to be 83.5%; in assay [2], 55.2%. The values for the viability at 100 µM in assay [1] (setting [4]) and in assay [2] were 1.8% and 3.8%, respectively.
